Measurements from patent publication US11440923B2, “Substituted macrocyclic indole derivatives” (Bayer Aktiengesellschaft, priority 2017, dated 2022).
Where a name gives a salt, the structure may show the parent alone. Read-outs that look alike come from different tables or passages of the source.

Columns and labels:
[1] = system: SUDHL10 cells; assay: Induction of cytotoxicity in SUDHL10 cells (Assay 6); assay type: cell-based
Outline: (§1)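 Run alongside apoptosis measurements, this cytotoxicity readout used cells treated with compound for 5 h at 37 °C and quantified ATP-based luminescence with CellTiter-Glo.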

[2] = biological target: BCL-2 (Homo sapiens (Human), UniProt P10415); assay: Protein-protein interaction assay BCL-2/Bad BH3 peptide (BCL-2 assay, TR-FRET); assay type: binding; conditions: read-out: BCL-2 Assay IC50 (median)
Description: Assay 3 Protein-Protein Interaction Assay: BCL-2/Bad BH3 Peptide (BCL-2 Assay)
The dose-dependent inhibition by the compounds described in this invention of the interaction between BCL-2 and the BH3 domain of Bad (both human) was determined using a steady state binding competition assay with time-resolved fluorescence energy transfer (TR-FRET) readout. For that purpose BCL-2 (amino acids 1-211, C-terminal fused to a hexahistidine (6×His) tag (SEQ ID 5) and a synthetic Bad BH3-derived peptide of sequence Biotin-PEG2-PEG2-[…]-Nle-[…]-amide (SEQ ID 4) served as protein receptor and tracer ligand respectively. The recombinant BCL-2 protein (expressed in E. coli) was purchased from BPS Bioscience (San Diego, Calif., USA). The Bad BH3-derived peptide can be obtained from e.g. Biosyntan (Berlin, Germany).
In the assay 11 different concentrations of each compound (0.1 nM, 0.33 nM, 1.1 nM, 3.8 nM, 13 nM, 44 nM, 0.15 μM, 0.51 μM, 1.7 μM, 5.9 μM and 20 μM) were typically measured as duplicates in the same microtiter plate. For that, 100-fold concentrated DMSO solutions were prepared by serial dilutions (1:3.4) of a 2 mM stock solution in a clear, 384-well microtiter plate (Greiner Bio-One, Frickenhausen, Germany). From there, 50 nl were transferred in a dark test plate (Greiner Bio-One, Frickenhausen, Germany). The assay was initiated by addition of 2 μL of a 2,5-fold concentrated His-BCL-2 solution (usually for a 1 nM end concentration in 5 μL reaction volume) in aqueous assay buffer [50 mM Tris/HCl pH 7, 100 mM sodium chloride (NaCl), 50 mM potassium fluoride (KF), 0.005% Tween-20, 2 mM DTT, 0.1% bovine gamma globulin (BGG)] to the compounds in the assay plate. This was followed by a 10-minute incubation step at 22° C. for pre-equilibration of the putative complex between His-BCL-2 and the compounds. After that, 3 μL of a 1.67-fold concentrated solution (in assay buffer) consisting of Bad BH3-derived peptide (1 nM end concentration) and TR-FRET detection reagents [1.67 nM anti-His-Eu cryptate and 1.67 nM streptavidin-XL665 (both from Cisbio Bioassays, Codolet, France)], were added.
The mixture was incubated in the dark for one hour at 22° C. and then overnight at 4° C. The formation of BCL-2/Bad complexes was determined by measuring the resonance energy transfer of the anti-His-Eu-cryptate antibody to the streptavidin-XL665 present in the reaction. For that purpose, the fluorescence emission at 620 nm and 665 nm after excitation at 330-350 nm was measured in a TR-FRET measuring instrument, for instance a Rubystar or a Pherastar (both from BMG Lab Technologies, Offenburg, Germany) or a Viewlux (Perkin-Elmer). The ratio of the emission at 665 nm and at 622 nm was used as indicator of the amount of BCL-2/Bad complexes present.
The resulting data (ratio) were normalized, taking 0% inhibition as the mean value of control measurements (usually 32 data points) where all reagents were included. In this case 50 nl DMSO were used instead of compounds. […] IC50 values were determined by regression analysis based on a 4 parameter equation (minimum, maximum, IC50, Hill; Y=Max+(Min−Max)/(1+(X/IC50)^Hill) using the Screener Software (Genedata).

[3] = system: SUDHL5 cells; assay: Induction of cytotoxicity in SUDHL5 cells (Assay 6); assay type: cell-based
Outline: as §1

[4] = 5 h, CellTiter-Glo; read-out: Cytotox SUDHL10 IC50 (median)
[5] = 5 h, CellTiter-Glo; read-out: Cytotox SUDHL5 IC50 (median)
[6] = Homo sapiens, SU-DHL10, 5 h, 5 h, CellTiter-Glo; read-out: Cytotox SUDHL10 IC50 (median)
[7] = Homo sapiens, SU-DHL-5, 5 h, 5 h, CellTiter-Glo; read-out: Cytotox SUDHL5 IC50 (median)

BCL-2, sequence (P10415 1-211): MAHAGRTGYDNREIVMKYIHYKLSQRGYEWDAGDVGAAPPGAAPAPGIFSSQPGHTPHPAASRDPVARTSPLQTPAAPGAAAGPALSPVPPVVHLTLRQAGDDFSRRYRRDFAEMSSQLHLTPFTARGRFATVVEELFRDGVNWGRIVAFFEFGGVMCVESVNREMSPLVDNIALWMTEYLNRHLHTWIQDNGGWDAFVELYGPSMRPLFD

Row | IC50 [2] [nM] | Structure (SMILES) | IC50 [1, 4] [nM] | IC50 [3, 5] [nM] | IC50 [1, 6] [nM] | IC50 [3, 7] [nM] | IC50 ([1]; read-out: Cytotox SUDHL10 IC50 (median); 5 h, CellTiter-Glo) [nM] | IC50 ([3]; read-out: Cytotox SUDHL5 IC50 (median); 5 h, CellTiter-Glo) [nM]
1 | > 20000 | CCc1c2c(nn1C)C(CCN1CCOCC1)OCCCCn1c(C(=O)O)c(CCCOc3cccc4cc(F)ccc34)c3ccc(F)c-2c31 (single isomer, unassigned; enantiomer 1) [Example 50, (+)-3-ethyl-4-fluoro-7-{3-[(6-fluoronaphthalen-1-yl)oxy]propyl}-2-methyl-15-[2-(morpholin-4-yl)ethyl]-2,10,11,12,13,15-hexahydropyrazolo[4′,3′:9,10][1,6]oxazacycloundecino[8,7,6-hi]indole-8-carboxylic Acid (Enantiomer 1)] | 27 | 16 |  |  |  | 
2 | > 20000 | Cc1c2c(nn1C)C(CCN1CCOCC1)OCCCCn1c(C(=O)O)c(CCCOc3cccc4ccccc34)c3cccc-2c31 (single isomer, unassigned; stereoisomer 2) [Example 6, 2,3-dimethyl-15-[2-(morpholin-4-yl)ethyl]-7-[3-(naphthalen-1-yloxy)propyl]-2,10,11,12,13,15-hexahydropyrazolo[4′,3′:9,10][1,6]oxazacycloundecino[8,7,6-hi]indole-8-carboxylic Acid (Stereoisomer 2)] | 29000 | 22000 |  |  |  | 
3 | 12200 | CCc1c2c(nn1C)C(Cc1ccccc1)OCCCCn1c(C(=O)O)c(CCCOc3cccc4cc(F)ccc34)c3ccc(Cl)c-2c31 (racemic) [Example 92, (rac)-(rac-15)-benzyl-4-chloro-3-ethyl-7-{3-[(6-fluoro-1-naphthyl)oxy]propyl}-2-methyl-2,10,11,12,13,15-hexahydropyrazolo[4′,3′:9,10][1,6]oxazacycloundecino[8,7,6-hi]indole-8-carboxylic Acid] |  |  | 1400 | 1200 |  | 
4 | > 20000 | CCc1c2c(nn1C)C(CCO)OCCCCn1c(C(=O)O)c(CCCOc3cccc4cc(F)ccc34)c3ccc(Cl)c-2c31 (single isomer, unassigned; enantiomer 1) [Example 45, (+)-4-chloro-3-ethyl-7-{3-[(6-fluoronaphthalen-1-yl)oxy]propyl}-15-(2-hydroxyethyl)-2-methyl-2,10,11,12,13,15-hexahydropyrazolo[4′,3′:9,10][1,6]oxazacycloundecino[8,7,6-hi]indole-8-carboxylic Acid (Enantiomer 1)] | 73 | 76 |  |  |  | 
5 | > 20000 | CCc1c2c(nn1C)C(CCN1CCOCC1)OCCCCn1c(C(=O)O)c(CCCOc3cccc4cc(F)ccc34)c3ccc(F)c-2c31 (single isomer, unassigned; enantiomer 2) [Example 51, (−)-3-ethyl-4-fluoro-7-{3-[(6-fluoronaphthalen-1-yl)oxy]propyl}-2-methyl-15-[2-(morpholin-4-yl)ethyl]-2,10,11,12,13,15-hexahydropyrazolo[4′,3′:9,10][1,6]oxazacycloundecino[8,7,6-hi]indole-8-carboxylic Acid (Enantiomer 2)] | 3700 | 3400 |  |  |  | 
6 | > 20000 | Cc1c2c(nn1C)C(C)OCCCCn1c(C(=O)O)c(CCCOc3cccc4ccccc34)c3cccc-2c31 (single isomer, unassigned; stereoisomer 2) [Example 3, 2,3,15-trimethyl-7-[3-(naphthalen-1-yloxy)propyl]-2,10,11,12,13,15-hexahydropyrazolo[4′,3′:9,10][1,6]oxazacycloundecino[8,7,6-hi]indole-8-carboxylic Acid Trifluoroacetic Acid Salt (Stereoisomer 2)] |  |  |  |  | 26000 | > 33000
7 | > 20000 | Cc1c2c(nn1C)C(CCN1CCOCC1)OCCCCn1c(C(=O)O)c(CCCOc3cccc4ccccc34)c3ccc(Cl)c-2c31 (single isomer, unassigned; enantiomer 1) [Example 14, 4-chloro-2,3-dimethyl-15-[2-(morpholin-4-yl)ethyl]-7-{3-[(naphthalen-1-yl)oxy]propyl}-2,10,11,12,13,15-hexahydropyrazolo[4′,3′:9,10][1,6]oxazacycloundecino[8,7,6-hi]indole-8-carboxylic Acid (Enantiomer 1)] | 34 | 23 |  |  |  | 

Row | Structure (SMILES) | IC50 [2] [nM] | IC50 [1, 4] [nM] | IC50 [3, 5] [nM] | IC50 [1, 6] [nM] | IC50 [3, 7] [nM] | IC50 ([1]; read-out: Cytotox SUDHL10 IC50 (median); 5 h, CellTiter-Glo) [nM] | IC50 ([3]; read-out: Cytotox SUDHL5 IC50 (median); 5 h, CellTiter-Glo) [nM]
8 | Cc1c2c(nn1C)C(CCN1CCOCC1)OCCCCn1c(C(=O)O)c(CCCOc3cccc4cc(F)ccc34)c3ccc(Cl)c-2c31 (single isomer, unassigned; enantiomer 2) [Example 18, 4-chloro-7-{3-[(6-fluoronaphthalen-1-yl)oxy]propyl}-2,3-dimethyl-15-[2-(morpholin-4-yl)ethyl]-2,10,11,12,13,15-hexahydropyrazolo[4′,3′:9,10][1,6]oxazacycloundecino[8,7,6-hi]indole-8-carboxylic Acid (Enantiomer 2)] | > 20000 |  |  | 770 | 530 |  | 
9 | Cc1c2c(nn1C)C(CCN1CCOCC1)OCCCCn1c(C(=O)O)c(CCCOc3cccc4cc(F)ccc34)c3ccc(F)c-2c31 (single isomer, unassigned; enantiomer 1) [Example 20, 4-fluoro-7-{3-[(6-fluoronaphthalen-1-yl)oxy]propyl}-2,3-dimethyl-15-[2-(morpholin-4-yl)ethyl]-2,10,11,12,13,15-hexahydropyrazolo[4′,3′:9,10][1,6]oxazacycloundecino[8,7,6-hi]indole-8-carboxylic Acid—N-ethylethanamine (Enantiomer 1)] | > 20000 |  |  | 41 | 33 |  | 
10 | CCc1c2c(nn1C)C(CCOC)OCCCCn1c(C(=O)O)c(CCCOc3cccc4cc(F)ccc34)c3ccc(Cl)c-2c31 (single isomer, unassigned; enantiomer 1) [Example 42, (+)-4-chloro-3-ethyl-7-{3-[(6-fluoronaphthalen-1-yl)oxy]propyl}-15-(2-methoxyethyl)-2-methyl-2,10,11,12,13,15-hexahydropyrazolo[4′,3′:9,10][1,6]oxazacycloundecino[8,7,6-hi]indole-8-carboxylic Acid—N-ethylethanamine Salt (Enantiomer 1)] | > 20000 | 66 | 55 |  |  |  | 
11 | CCC1OCCCCn2c(C(=O)O)c(CCCOc3cccc4ccccc34)c3ccc(Cl)c(c32)-c2c1nn(C)c2C (racemic) [Example 25, (rac)-4-chloro-15-ethyl-2,3-dimethyl-7-{3-[(naphthalen-1-yl)oxy]propyl}-2,10,11,12,13,15-hexahydropyrazolo[4′,3′:9,10][1,6]oxazacycloundecino[8,7,6-hi]indole-8-carboxylic Acid] | > 20000 |  |  | 8800 | 2800 |  | 
12 | CCc1c2c(nn1C)C(CCN1CCN(C)CC1)OCCCCn1c(C(=O)O)c(CCCOc3cccc4cc(F)ccc34)c3ccc(Cl)c-2c31 (racemic) [Example 71, (rac)-4-chloro-3-ethyl-7-{3-[(6-fluoronaphthalen-1-yl)oxy]propyl}-2-methyl-(15-rac)-[2-(4-methylpiperazin-1-yl)ethyl]-2,10,11,12,13,15-hexahydropyrazolo[4′,3′:9,10][1,6]oxazacycloundecino[8,7,6-hi]indole-8-carboxylic Acid—N-ethylethanamine Salt (Mixture 2 Od Stereoisomers)] | > 20000 | 36 |  |  |  |  | 
